Experimental data as given in patent US20260297042A1, “BIARYLAMIDE DERIVATIVES AND THEIR USE AS PKMYT1 INHIBITORS” (CANCER RESEARCH TECHNOLOGY LIMITED, priority 2023, published 2026).
Where a name gives a salt, the structure may show the parent alone.

Columns and labels:
[1] = target: T1, Human PKMYT1 (Homo sapiens, UniProt Q99640); experiment: PKMYT1 biochemical ADP-Glo enzymatic assay; conditions: PKMYT1 kinase domain 15 nM; ADP-Glo; banded values
T1 construct: Human PKMYT1 75-362 was cloned as a TEV cleavable 6xHis fusion; 6xHis (TEV cleavable) (cleaved yes); made in house; host or cells: bacterial cells
T1 sequence (Q99640 75-362): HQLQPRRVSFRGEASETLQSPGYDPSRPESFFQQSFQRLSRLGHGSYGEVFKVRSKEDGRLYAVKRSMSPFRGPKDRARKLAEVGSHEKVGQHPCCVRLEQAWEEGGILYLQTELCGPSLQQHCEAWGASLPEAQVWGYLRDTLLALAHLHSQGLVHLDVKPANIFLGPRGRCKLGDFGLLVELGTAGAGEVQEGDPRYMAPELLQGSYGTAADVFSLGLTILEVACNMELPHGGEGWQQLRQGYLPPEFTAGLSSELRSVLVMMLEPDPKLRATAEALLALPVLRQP
Method in brief: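 Purified untagged human PKMYT1 75-362 at 15 nM final was tested in HEPES pH 7.5 with MgCl2, EGTA, Brij-35 and 1% DMSO. Intrinsic ATPase activity was measured with 500 uM ATP over 60 min at 26° C. ADP-Glo luminescence was read and IC50 fitted from 10-point, 3-fold dilution curves.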

[2] = target: T2, WEE1 (Homo sapiens, UniProt P30291); experiment: Selectivity versus WEE1 assay (ADP-Glo enzymatic assay); type: biochemical; conditions: for IC50: WEE1 15 nM, ADP-Glo, banded values; for PKMYT1 vs. WEE1 selectivity: fold difference in selectivity for PKMYT1 over WEE1, banded
T2 construct: purchased Thermo Fisher PR7373A
Method in brief: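 WEE1 at 15 nM final in 50 mM HEPES pH 7.5, 10 mM MgCl2, 1 mM EGTA, 0.01% Brij-35, 1% DMSO; reaction started with 30 µM ATP, 60 min at 26 °C. ADP-Glo luminescence; IC50 from dose-response curves, replicates within 3-fold and r2 >0.9.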

T2 sequence (P30291 whole entry): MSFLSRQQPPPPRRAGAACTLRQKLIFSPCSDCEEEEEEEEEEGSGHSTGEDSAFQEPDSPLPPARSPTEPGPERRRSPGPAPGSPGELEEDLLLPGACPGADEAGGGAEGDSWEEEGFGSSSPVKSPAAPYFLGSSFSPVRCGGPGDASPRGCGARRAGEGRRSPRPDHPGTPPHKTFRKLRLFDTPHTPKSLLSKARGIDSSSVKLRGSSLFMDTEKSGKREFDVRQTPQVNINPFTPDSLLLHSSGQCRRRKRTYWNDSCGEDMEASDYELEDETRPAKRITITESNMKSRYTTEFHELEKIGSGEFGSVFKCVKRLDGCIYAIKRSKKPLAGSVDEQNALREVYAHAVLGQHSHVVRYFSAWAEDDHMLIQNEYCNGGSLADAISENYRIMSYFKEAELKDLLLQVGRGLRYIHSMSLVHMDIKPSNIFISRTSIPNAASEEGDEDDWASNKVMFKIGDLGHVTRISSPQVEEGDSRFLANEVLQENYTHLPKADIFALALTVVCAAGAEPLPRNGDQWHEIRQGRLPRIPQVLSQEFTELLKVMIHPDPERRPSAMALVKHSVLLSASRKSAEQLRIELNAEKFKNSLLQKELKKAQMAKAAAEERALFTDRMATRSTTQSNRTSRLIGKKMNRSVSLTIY

| IC50 [1] [nM] | IC50 [2] [nM] | PKMYT1 vs. WEE1 selectivity [2] | Compound |
| --- | --- | --- | --- |
| < 50 | 1000 to 11000 | X (100-<1000 fold) | Cc1cn(CC(=O)N(C)CCS(C)(=O)=O)nc1Nc1ncc(C(=O)Nc2c(C)ccc(O)c2C)s1 [BAA-522, N-(3-hydroxy-2,6-dimethylphenyl)-2-((4-methyl-1-(2-(methyl(2-(methylsulfonyl)ethyl)amino)-2-oxoethyl)-1H-pyrazol-3-yl)amino)thiazole-5-carboxamide] |
| < 50 | > 11000 | Y (1000-5000 fold) | Cc1cn(CC(=O)N(C)CCO)nc1Nc1ncc(C(=O)Nc2c(C)ccc(O)c2C)s1 [BAA-524, N-(3-Hydroxy-2.6-dimethylphenyl)-2-((1-(2-((2-hydroxyethyl)(methyl)amino)-2-oxoethyl)-4-methyl-1H-pyrazol-3-yl)amino)thiazole-5-carboxamide] |
| 50 to 1000 | > 11000 | X (100-<1000 fold) | Cc1ccc(O)c(C)c1NC(=O)c1cnc(Nc2ccccc2C2CC2)s1 [BAA-526, 2-((2-cyclopropylphenyl)amino)-N-(3-hydroxy-2,6-dimethylphenyl)thiazole-5-carboxamide] |
| 50 to 1000 | > 11000 | W (10-<100 fold) | Cc1ccc(O)c(C)c1NC(=O)c1cnc(Nc2cnn(CC(=O)N3CCCC3)c2)s1 [BAA-527, N-(3-hydroxy-2,6-dimethylphenyl)-2-((1-(2-oxo-2-(pyrrolidin-1-yl)ethyl)-1H-pyrazol-4-yl)amino)thiazole-5-carboxamide] |
| 50 to 1000 | > 11000 | X (100-<1000 fold) | COc1ccccc1Nc1ncc(C(=O)Nc2c(C)ccc(O)c2C)s1 [BAA-528, N-(3-hydroxy-2,6-dimethylphenyl)-2-((2-methoxyphenyl)amino)thiazole-5-carboxamide. TFA salt] |
| 50 to 1000 | > 11000 | X (100-<1000 fold) | Cc1ccc(O)c(C)c1NC(=O)c1cnc(Nc2cccc3c2OCCO3)s1 [BAA-529, 2-((2,3-dihydrobenzo[b][1,4]dioxin-5-yl)amino)-N-(3-hydroxy-2,6-dimethylphenyl)thiazole-5-carboxamide. TFA salt] |
| 50 to 1000 | > 11000 | X (100-<1000 fold) | Cc1ccc(O)c(C)c1NC(=O)c1cnc(Nc2cccc3c2OCC3)s1 [BAA-530, 2-((2,3-dihydrobenzofuran-7-yl)amino)-N-(3-hydroxy-2,6-dimethylphenyl)thiazole-5-carboxamide. TFA salt] |
| 50 to 1000 | > 11000 | Y (1000-5000 fold) | Cc1ccc(O)c(C)c1NC(=O)c1cnc(Nc2cccc3ccoc23)s1 [BAA-531, 2-(benzofuran-7-ylamino)-N-(3-hydroxy-2,6-dimethylphenyl)thiazole-5-carboxamide] |
| < 50 | 1000 to 11000 | X (100-<1000 fold) | CCN(CCC#N)C(=O)Cn1cc(C)c(Nc2ncc(C(=O)Nc3c(C)ccc(O)c3C)s2)n1 [BAA-532, 2-((1-(2-((2-cyanoethyl)(ethyl)amino)-2-oxoethyl)-4-methyl-1H-pyrazol-3-yl)amino)-N-(3-hydroxy-2,6-dimethylphenyl)thiazole-5-carboxamide] |
| < 50 | > 11000 | Y (1000-5000 fold) | CCC(C(=O)N1CCN(C)CC1)n1ccc(Nc2ncc(C(=O)Nc3c(C)ccc(O)c3C)s2)n1 (stereo not drawn) [BAA-533, N-(3-hydroxy-2,6-dimethylphenyl)-2-((1-(1-(4-methylpiperazin-1-yl)-1-oxobutan-2-yl)-1H-pyrazol-3-yl)amino)thiazole-5-carboxamide] |
| < 50 | > 11000 | Y (1000-5000 fold) | Cc1ccc(O)c(C)c1NC(=O)c1cnc(Nc2ccn(C(C)C(=O)N3CCN(C)CC3)n2)s1 (stereo not drawn) [BAA-534, N-(3-hydroxy-2,6-dimethylphenyl)-2-((1-(1-(4-methylpiperazin-1-yl)-1-oxopropan-2-yl)-1H-pyrazol-3-yl)amino)thiazole-5-carboxamide] |
